According to PMC11413451 (Frontiers in Cell and Developmental Biology, 2024):
Like-named read-outs stand apart in the source and are kept apart here.

How the values were obtained:
human Slo3 = molecular target: T1, human Slo3 (Homo sapiens, UniProt A8MYU2); assay: Whole-cell patch-clamp of Slo3 currents in CHO cells co-expressing human Slo3 and LRRC52; type: cell-based
T1 construct: expressed in transfected cells; host or cells: CHO cells, transient co-transfection with pcDNA3.1(+) vectors
T1 sequence (A8MYU2 1-1149): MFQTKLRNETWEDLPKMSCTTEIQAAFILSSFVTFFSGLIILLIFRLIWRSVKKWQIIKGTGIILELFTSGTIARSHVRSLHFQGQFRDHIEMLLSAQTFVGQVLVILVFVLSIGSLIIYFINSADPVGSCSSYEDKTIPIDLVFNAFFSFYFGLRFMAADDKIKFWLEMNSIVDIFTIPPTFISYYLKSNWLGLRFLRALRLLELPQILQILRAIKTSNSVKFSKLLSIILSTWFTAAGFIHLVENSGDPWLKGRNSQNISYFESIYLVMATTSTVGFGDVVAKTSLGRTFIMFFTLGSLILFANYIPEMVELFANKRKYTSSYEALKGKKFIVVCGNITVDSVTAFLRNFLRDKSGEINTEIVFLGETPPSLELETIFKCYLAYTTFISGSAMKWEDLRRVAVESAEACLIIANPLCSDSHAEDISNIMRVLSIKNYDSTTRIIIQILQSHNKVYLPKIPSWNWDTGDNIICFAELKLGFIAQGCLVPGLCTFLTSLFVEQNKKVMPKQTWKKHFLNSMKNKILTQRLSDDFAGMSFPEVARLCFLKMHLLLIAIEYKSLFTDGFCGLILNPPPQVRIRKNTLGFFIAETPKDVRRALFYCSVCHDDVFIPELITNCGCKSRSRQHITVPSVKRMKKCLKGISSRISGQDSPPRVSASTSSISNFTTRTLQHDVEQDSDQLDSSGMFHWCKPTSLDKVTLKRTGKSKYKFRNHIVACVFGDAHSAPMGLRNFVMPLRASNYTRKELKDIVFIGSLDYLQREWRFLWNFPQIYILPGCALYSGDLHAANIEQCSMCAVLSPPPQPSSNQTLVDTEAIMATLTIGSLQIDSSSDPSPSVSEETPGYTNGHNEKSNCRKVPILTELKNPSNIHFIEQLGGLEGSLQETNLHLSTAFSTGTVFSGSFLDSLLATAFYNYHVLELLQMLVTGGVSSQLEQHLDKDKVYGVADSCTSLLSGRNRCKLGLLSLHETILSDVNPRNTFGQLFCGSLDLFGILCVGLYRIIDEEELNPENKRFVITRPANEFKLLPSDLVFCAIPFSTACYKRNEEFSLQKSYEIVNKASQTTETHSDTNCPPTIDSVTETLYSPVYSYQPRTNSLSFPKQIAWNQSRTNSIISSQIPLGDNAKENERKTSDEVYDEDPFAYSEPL
T1 sequence (Q8N7C0 24-313 partner): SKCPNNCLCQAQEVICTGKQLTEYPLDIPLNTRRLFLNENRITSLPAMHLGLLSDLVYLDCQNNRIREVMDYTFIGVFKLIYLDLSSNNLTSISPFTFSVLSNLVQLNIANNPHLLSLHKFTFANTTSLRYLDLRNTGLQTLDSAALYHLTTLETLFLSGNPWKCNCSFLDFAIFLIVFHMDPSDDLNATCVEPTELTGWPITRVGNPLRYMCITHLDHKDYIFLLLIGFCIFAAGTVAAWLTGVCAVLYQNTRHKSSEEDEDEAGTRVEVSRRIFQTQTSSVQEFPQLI

CatSper = conditions: relative to progesterone; cited from earlier work
[1] = 50 µM prostaglandin, n = 3, in range of current rundown
[2] = dose-response, Hill fit, mean ± SD, read-out: IC50 for inhibition of Slo3

Structure (SMILES)	decrease of Slo3 current amplitude (human Slo3; 50 μM steroid, +100 mV, n ≥ 3)	further results
C[C@]12CC[C@H]3[C@@H](CCC4=CC(=O)CC[C@@]43C)[C@@H]1CC[C@@H]2O [testosterone]	significantly decreased	IC50 (human Slo3): 17 ± 14 µM
[Zn+2] [Zn^2+]		decrease of Slo3 current amplitude (human Slo3; 1 mM Zn^2+, n = 4, in range of current rundown): 14 ± 13%
CCCCC[C@H](O)/C=C/[C@H]1[C@H](O)CC(=O)[C@@H]1C/C=C\CCCC(=O)O [PGE2, prostaglandin E2]		decrease of Slo3 current amplitude (human Slo3; [1]): 7 ± 7%
C[C@]12CCC(=O)C=C1CC[C@@H]1[C@@H]2C(=O)C[C@@]2(C)[C@H]1CC[C@]2(O)C(=O)CO [cortisone]	≤ 18%	
C[C@]12CC[C@@H]3c4ccc(O)cc4CC[C@H]3[C@@H]1CCC2=O [estrone]	≤ 18%	
C[C@]12C[C@H](O)[C@H]3[C@@H](CCC4=CC(=O)CC[C@@]43C)[C@@H]1CC[C@@H]2C(=O)CO [corticosterone]	significantly decreased	IC50 (human Slo3; [2]): 58 ± 11 µM
CC(=O)[C@@]1(O)CC[C@H]2[C@@H]3CC=C4C[C@@H](O)CC[C@]4(C)[C@H]3CC[C@@]21C [17α-hydroxypregnenolone]	≤ 18%	
C[C@]12CCC(=O)C=C1CC[C@@H]1[C@@H]2CC[C@]2(C)C(=O)CC[C@@H]12 [androstenedione]	≤ 18%	
CC(=O)[C@H]1CC[C@H]2[C@@H]3CCC4=CC(=O)CC[C@]4(C)[C@H]3CC[C@]12C [progesterone]	significantly decreased	IC50 (human Slo3; [2]): 5.2 ± 2.9 µM
CC(=O)C1(O)CCC2C3CCC4=CC(=O)CCC4(C)C3CCC21C (stereo not drawn) [17α-hydroxyprogesterone]	significantly decreased	IC50 (human Slo3; [2]): 27 ± 10 µM
C[C@]12CC[C@H]3[C@@H](CC=C4C[C@@H](O)CC[C@@]43C)[C@@H]1CC[C@@H]2O [androstenediol]	≤ 18%	
C[C@]12CC[C@@H]3c4ccc(O)cc4CC[C@H]3[C@@H]1CC[C@@H]2O [estradiol]	significantly decreased	IC50 (human Slo3): 8.9 ± 4.4 µM; fold less potent than progesterone to activate CatSper (CatSper): around 100 fold
CCCCC/C=C\C/C=C\C/C=C\C/C=C\CCCC(=O)O [arachidonic acid]		effect on Slo3 currents (human Slo3; 3 µM arachidonic acid, n = 7): did not affect
C[C@]12CC[C@H](O)CC1=CC[C@@H]1[C@@H]2CC[C@]2(C)C(=O)CC[C@@H]12 [DHEA, dehydroepiandrosterone]	significantly decreased	IC50 (human Slo3): 41 ± 4 µM
CCCCC[C@H](O)/C=C/[C@H]1[C@H](O)CC(=O)[C@@H]1CCCCCCC(=O)O [PGE1, prostagladin E1]		decrease of Slo3 current amplitude (human Slo3; [1]): 18 ± 7%
CC(=O)[C@H]1CC[C@H]2[C@@H]3CC=C4C[C@@H](O)CC[C@]4(C)[C@H]3CC[C@]12C [pregnenolone]	≤ 18%	
